Data on 16 molecules can be found in patent EP0619297B1, “Fungicides for the control of take-all desease of plants” (MONSANTO COMPANY, priority 1993, dated 1994).

The structures appear in SMILES notation. ≈ marks a conversion by molar mass, not a printed value. Read-outs that look alike come from different tables or passages of the source.

Assay [1] concerns Gaeumannomyces graminis var. tritici (Ggt). Kind of assay: In vitro assay: mycelial growth on minimal media agar plates (Percent Inhibition; IC50). Type of assay: cell-based. Conditions: for inhibition at 0.1 ppm: read-out: In vitro(ppm) 0.1, Percent Inhibition; for inhibition at 1 ppm: read-out: In vitro(ppm) 1, Percent Inhibition; for inhibition at 10 ppm: read-out: In vitro(ppm) 10, Percent Inhibition; for IC50: interpolated from percent inhibition at 1, 0.1, 0.01, 0.001 and 0.0001 ppm. The method, then:
The test compounds (0.25 mL of an appropriate stock solution in acetone) are incorporated into 25 mL minimal media agar [prepared by autoclaving a solution of 17.5 g Czapek Dox broth (Difco), 7.5 g purified agar or Bacto-agar (Difco), and 500 mL distilled/deionized water, and then adding 50 µL of 1 mg/mL thiamine hydrochloride and 50 µL of 1 mg/mL biotin in 5% ethanol] and plates are prepared.
Each plate is inoculated by placing in a triangular shape three 4-mm plugs of Gaeumannomyces graminis var. tritici (Ggt) grown on the minimal media agar described above. The plates are incubated in the dark at 19 - 20 °C for 4 to 5 days. The growth of the fungus is measured as the diameter of the mycelial growth. The result is expressed as Percent Inhibition, calculated as [1 - [(mm growth on treated plate - 4)/(mm growth on control plate - 4)]] x 100.
To determine IC5O values, an in vitro assay was run on each compound at the concentrations of 1, 0.1, 0.01, 0.001, and 0.0001 ppm. The percent inhibition was calculated for each concentration using the equation described in the in vitro assay under the section on Biological Assays. Using the two ordered pairs of (concentration, % inhibition) that bracket 50% inhibition of fungal growth, the concentration for 50% inhibition is calculated from the following equation. IC50 = [(50-I2 )C1 + (I1 -50)C2 ]/(I1 -I2 ), [formula] where C1 = 10C2.

Another assay concerns Ggt. The assay is described as follows: In vivo assay: control of Ggt on wheat in 3-inch pots with infested soil, rated after four weeks.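 As to In vivo(ppm) 0.1, percent disease control: rate is mg active ingredient per pot in 3 mL solution not ppm.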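 As to In vivo(ppm) 0.5, percent disease control: rate is mg active ingredient per pot in 3 mL solution not ppm.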 More on the design: species or system Gaeumannomyces graminis var. tritici. Conditions: Gaeumannomyces graminis, 672 h; for pest or weed control at 0.1 mg/pot: read-out: In vivo(ppm) 0.1, percent disease control; for pest or weed control at 0.5 mg/pot: read-out: In vivo(ppm) 0.5, percent disease control; for pest or weed control at 0.02 mg/pot: read-out: In vivo(ppm) 0.02mg/pot, percent disease control. The protocol:
Compounds are tested for control of Ggt on 'Bergen' or 'Anza' varieties of wheat grown in 3-inch square pots containing soil infested with Ggt. The infestation is accomplished by mixing the soil with an inoculum prepared by growing Ggt on 1/4 strength potato dextrose agar (4.875 g potato dextrose agar, 5.0 g Bacto agar, 500 mL distilled, deionized water) in plates and using plugs from the plates to infest sterile oats (400 cc whole oats, 350 mL deionized water, autoclaved). After a one-month incubation period at room temperature, the oats are dried and mixed with the soil at 4% v/v. Four wheat seeds are placed on top of the soil in each pot. […] Five pots are used for each treatment level and the controls, which are untreated, inoculated and non-inoculated pots. After one hour drying time, the seeds are covered with more of the appropriate soil and a layer of vermiculite. The pots are placed in a growth chamber and watered each day. After four weeks, each pot is evaluated for evidence of disease by examination of the seminal roots of each plant under a dissecting microscope. A 0 to 5 rating scale having the following meanings is used: • 0 = no runner hyphae or lesions present • 1 = runner hyphae and a few small lesions present on <10% of root system • 2 = runner hyphae and small lesions present on 10 - 25% of root system • 3 = runner hyphae and lesions present on 25 - 50% of root system • 4 = runner hyphae and many, large, coalescing lesions on >50% of root system • 5 = root system and culm completely inundated with lesions and runner hyphae
From each set of five replicates a high or low score may be eliminated to assure the best representative scores are used to calculate a replicate mean by averaging the remaining scores. This mean score is then compared to the untreated control score and a percent disease control is calculated.

[2] abbreviates: 0.1 ppm in agar, 19 - 20 °C, 4 to 5 days.
The mark [3] stands for this setting: 1 ppm in agar, 19 - 20 °C, 4 to 5 days.
The mark [4] stands for this setting: 10 ppm in agar, 19 - 20 °C, 4 to 5 days.
[5] abbreviates: rate 0.02mg/pot, wheat, soil infested with Ggt, after four weeks.
The mark [6] stands for this setting: rate 0.1 (head prints ppm, head line ends mg/pot), wheat, soil infested with Ggt, after four weeks, N = no control.
The mark [7] stands for this setting: rate 0.5 (head prints ppm, head line ends mg/pot), wheat, soil infested with Ggt, after four weeks, N = no control.

On to `CCNC(=O)c1c([Si](C)(C)C)sc2ccccc12` [Example 8, N-Ethyl-2-(trimethylsilyl)-benzo[b]thiophene-3-carboxamide], for which, in assay [1], the inhibition at 0.1 ppm came out at 97%, the inhibition at 1 ppm was 93% and the inhibition at 10 ppm was determined as 100%. Also, in the assay with Ggt (soil), the pest or weed control at 0.1 mg/pot came to 43% and the pest or weed control at 0.5 mg/pot was found to be 71%.
Turning to `CCNC(=O)c1sc2ccccc2c1[Si](C)(C)C` [Example 9, N-Ethyl-3-(trimethylsilyl)benzo[b]thiophene-2-carboxamide], in assay [1], the inhibition at 0.1 ppm was 0%, the inhibition at 1 ppm was 0% and the inhibition at 10 ppm stood at 88%. Besides, the pest or weed control at 0.1 mg/pot in the assay with Ggt (soil) is less than 0%.
For `CCNC(=O)c1c([Si](C)(C)C)oc2ccccc12` [Example 12, N-Ethyl-2-(trimethylsilyl)-3-benzofurancarboxamide], in assay [1], the inhibition at 0.1 ppm is 97%, the inhibition at 1 ppm turned out to be 97% and the inhibition at 10 ppm was 100%. Besides, in the assay on Ggt (soil), the pest or weed control at 0.1 mg/pot stood at 85% and the pest or weed control at 0.5 mg/pot was determined as 97%.
As for `C=CCNC(=O)c1c([Si](C)(C)C)sc2ccccc12` [Example 13, N-2-Propenyl-2-(trimethylsilyl)benzo[b]thiophene-3-carboxamide], in assay [1], the inhibition at 0.1 ppm came out at 100%, the inhibition at 1 ppm worked out at 100% and the inhibition at 10 ppm came out at 100%. In the assay with Ggt (soil), the pest or weed control at 0.1 mg/pot amounted to 84% and the pest or weed control at 0.5 mg/pot amounted to 94%.
Consider `CCN(CC)C(=O)c1c([Si](C)(C)C)sc2ccccc12` [Example 14, N,N-Diethyl-2-(trimethylsilyl)benzo[b]thiophene-3-carboxamide], for which, in assay [1], the inhibition at 0.1 ppm is 42%, the inhibition at 1 ppm is 92% and the inhibition at 10 ppm amounted to 100%. In the assay on Ggt (soil), the pest or weed control at 0.1 mg/pot was 76% and the pest or weed control at 0.5 mg/pot amounted to 94%.
For `CCN(SC)C(=O)c1c([Si](C)(C)C)sc2ccccc12` [Example 16, N-Ethyl-N-(methylthio)-2-(trimethylsilyl)benzo[b]-thiophene-3-carboxamide], in that order: 100%, 100%, 100%, 87% and 93%.
On to `CC(C)N(O)C(=O)c1c([Si](C)(C)C)sc2ccccc12` [Example 17, N-Hydroxy-N-(1-methylethyl)-2-(trimethylsilyl)benzo[b]-thiophene-3-carboxamide], for which, in assay [1], the inhibition at 0.1 ppm worked out at 96%, the inhibition at 1 ppm was found to be 100% and the inhibition at 10 ppm is 100%. In the assay on Ggt (soil), the pest or weed control at 0.1 mg/pot was 42% and the pest or weed control at 0.5 mg/pot came to 46%.
Regarding `CC(C)(C)Nc1ccc2ccccc2c1C(=O)NCCBr` [Example 18, N-(2-bromoethyl) 2-[(1,1-dimethylethyl)amino]-1-naphthamide], in assay [1], the inhibition at 0.1 ppm amounted to 10%, the inhibition at 1 ppm was found to be 88% and the inhibition at 10 ppm amounted to 98%. Moreover, in the assay with Ggt (soil), the pest or weed control at 0.02 mg/pot was 0%, the pest or weed control at 0.1 mg/pot came out at 0% and the pest or weed control at 0.5 mg/pot turned out to be 14%.
For the molecule `CCC(C)(C)Nc1ccc2ccccc2c1C(=O)NCCBr` [Example 19, N-(2-bromoethyl) 2-[(1,1-dimethylpropyl)amino]-1-naphthamide], in assay [1], the inhibition at 0.1 ppm stood at 68%, the inhibition at 1 ppm is 93% and the inhibition at 10 ppm came out at 98%. Further, in the assay on Ggt (soil), the pest or weed control at 0.02 mg/pot amounted to 0%, the pest or weed control at 0.1 mg/pot is 0% and the pest or weed control at 0.5 mg/pot was 22%.
In the case of `CCNC(=O)c1c(NC(C)(C)C)ccc2ccccc12` [Example 20, N-ethyl 2-[(1,1-dimethylethyl)amino]-1-naphthamide], the inhibition at 0.1 ppm in assay [1] (setting [2]) came to 80%. Further, the inhibition at 1 ppm in assay [1] (setting [3]) came out at 98%. In addition, in assay [1] (setting [4]), the inhibition at 10 ppm was found to be 100%. For the same molecule, it took 71.6 ng/mL (≈ 0.265 µM) to reach half-maximal inhibition in assay [1] (IC50). Moreover, the pest or weed control at 0.02 mg/pot in the assay on Ggt (setting [5]) was determined as 5%. For the same molecule, the pest or weed control at 0.1 mg/pot in the assay with Ggt (setting [6]) was found to be 24%. Besides, the pest or weed control at 0.5 mg/pot in the assay with Ggt (setting [7]) was determined as 61%.
As for `CCCNC(=O)c1c(NC(C)(C)C)ccc2ccccc12` [Example 21, N-propyl 2-[(1,1-dimethylethyl)amino]-1-naphthamide], the inhibition at 0.1 ppm in assay [1] (setting [2]) worked out at 95%. For the same molecule, the inhibition at 1 ppm in assay [1] (setting [3]) was determined as 97%. Also, in assay [1] (setting [4]), the inhibition at 10 ppm was determined as 97%. The molecule also gave a concentration for half-maximal inhibition (IC50) in assay [1] of 8.5 ng/mL (≈ 0.0299 µM). In addition, the pest or weed control at 0.02 mg/pot in the assay on Ggt (setting [5]) is 35%. Also, in the assay with Ggt (setting [6]), the pest or weed control at 0.1 mg/pot was 60%. For the same molecule, the pest or weed control at 0.5 mg/pot in the assay with Ggt (setting [7]) came to 78%.
In the case of `CCNC(=O)c1c(NC(C)(C)CC)ccc2ccccc12` [Example 22, N-ethyl 2-[(1,1-dimethylpropyl)amino]-1-naphthamide], the inhibition at 0.1 ppm in assay [1] (setting [2]) came out at 95%. Also, the inhibition at 1 ppm in assay [1] (setting [3]) is 98%. For the same molecule, in assay [1] (setting [4]), the inhibition at 10 ppm is 98%. Besides, the IC50 in assay [1] is 9.18 ng/mL (≈ 0.0323 µM). In the assay with Ggt (setting [5]), the pest or weed control at 0.02 mg/pot is 11%. In the assay with Ggt (setting [6]), the pest or weed control at 0.1 mg/pot came out at 41%. Moreover, in the assay with Ggt (setting [7]), the pest or weed control at 0.5 mg/pot came out at 70%.
Regarding `CCNC(=O)c1c(NC(C)(CC)CC)ccc2ccccc12` [Example 23, N-ethyl 2-[(1,1-diethylethyl)amino]-1-naphthamide], the inhibition at 0.1 ppm in assay [1] (setting [2]) was found to be 21%. Moreover, the inhibition at 1 ppm in assay [1] (setting [3]) was 21%. The inhibition at 10 ppm in assay [1] (setting [4]) is 43%. For the same molecule, the 50% inhibitory concentration (IC50) in assay [1] came to 6.62 ng/mL (≈ 0.0222 µM). In the assay with Ggt (setting [5]), the pest or weed control at 0.02 mg/pot came to 50%. The pest or weed control at 0.1 mg/pot in the assay with Ggt (setting [6]) was found to be 65%. For the same molecule, in the assay with Ggt (setting [7]), the pest or weed control at 0.5 mg/pot is 85%.
On to `CCCNC(=O)c1c(NC(C)(CC)CC)ccc2ccccc12` [Example 24, N-propyl 2-[(1,1-diethylethyl)amino]-1-naphthamide], for which, in assay [1] (setting [2]), the inhibition at 0.1 ppm stood at 95%. Further, the inhibition at 1 ppm in assay [1] (setting [3]) came out at 95%. Also, the inhibition at 10 ppm in assay [1] (setting [4]) was 100%. In assay [1], this molecule returned an IC50 of 0.814 ng/mL (≈ 0.00261 µM). Moreover, the pest or weed control at 0.02 mg/pot in the assay with Ggt (setting [5]) was 32%. For the same molecule, in the assay with Ggt (setting [6]), the pest or weed control at 0.1 mg/pot was 38%. The pest or weed control at 0.5 mg/pot in the assay with Ggt (setting [7]) stood at 76%.
Turning to `CCCNC(=O)c1c(NC(C)(C)CC)ccc2ccccc12` [Example 25, N-propyl 2-[(1,1-dimethylpropyl)amino]-1-naphthamide], the inhibition at 0.1 ppm in assay [1] (setting [2]) was found to be 95%. For the same molecule, the inhibition at 1 ppm in assay [1] (setting [3]) was determined as 100%. The inhibition at 10 ppm in assay [1] (setting [4]) is 100%. Moreover, the IC50 in assay [1] was determined as 1 ng/mL (≈ 0.00335 µM). The pest or weed control at 0.02 mg/pot with Ggt (setting [5]) turned out to be 17%. For the same molecule, the pest or weed control at 0.1 mg/pot in the assay with Ggt (setting [6]) is 57%. In addition, the pest or weed control at 0.5 mg/pot in the assay with Ggt (setting [7]) was found to be 78%.
Consider `CCNC(=O)c1c(OC(C)(CC)CC)ccc2ccccc12` [Example 28, N-ethyl 2-[(1,1-diethylethyl)oxy]-1-naphthamide], for which, in assay [1] (setting [2]), the inhibition at 0.1 ppm came out at 74%. Also, the inhibition at 1 ppm in assay [1] (setting [3]) was determined as 96%. In addition, the inhibition at 10 ppm in assay [1] (setting [4]) was 96%. The pest or weed control at 0.02 mg/pot in the assay on Ggt (setting [5]) was determined as 19%. Also, the pest or weed control at 0.1 mg/pot in the assay on Ggt (setting [6]) amounted to 40%. In addition, in the assay on Ggt (setting [7]), the pest or weed control at 0.5 mg/pot worked out at 78%.
